In patent US11246924B2, “Alpha-helical peptide nanofibers as a self-adjuvanting vaccine platform” (Duke University, priority 2016, dated 2022):
Entries after “also recorded” stand apart in the source; their conditions may differ.

Columns and labels:
[1] = test system: dendritic cells (CD11c+MHCII+F4/80−); assay: Uptake of TAMRA labelled peptides by dendritic cells in vivo (flow cytometry of peritoneal lavage fluid); parameters: species or system C57BL/6 mice; conditions: TAMRA labelled peptide, i.p. injection, peritoneal lavage 20 h after injection
Procedure: (§1) Antibodies and Flow Cytometry: Antibodies were purchased from eBioscience unless specified. Flow cytometry was performed using LSRII blue (BD). FlowJo (Tree Star Inc.) was used in the analysis of flow data. For analysis of cell recruitment to the peritoneal cavity, cells isolated from i.p. lavage fluid were stained and analyzed as described.
(§2) To examine whether the epitope-bearing nanofibers could be internalized by APCs, C57BL/6 mice were immunized via i.p. injection with 1×PBS, or PEPvIII or P-C peptides fluorescently labelled with TAMRA (FIG. 8). […] The peritoneal lavage fluid was collected 20 h after injections, to analyze for the percentage of TAMRA positive DCs (CD11c^+MHCII^+F4/80^−) and MΦ (CD11c^−F4/80^+) using flow cytometry (FIG. 18).

[2] = test system: macrophages (CD11c−F4/80+); assay: Uptake of TAMRA labelled peptides by macrophages in vivo (flow cytometry of peritoneal lavage fluid); parameters: species or system C57BL/6 mice; conditions: TAMRA labelled peptide, i.p. injection, peritoneal lavage 20 h after injection
Procedure: as §1, §2

[3] = test system: PEPvIII epitope (EGFRvIII); assay: PEPvIII-specific IgG antibody titers in sera after subcutaneous immunization (ELISA); format: in vivo, C57BL/6 mice; conditions: for PEPvIII-specific IgG antibody response: s.c. primary injection week 0 (2×10^−3 M PEPvIII epitope, 100 μL), half-dose boosts weeks 4 and 7, sera over 18 weeks
Procedure: Vaccine Preparation: To prepare PEPvIII-Coil29 peptide fibers solutions for immunization, the lyophilized peptides were first dissolved in 10×10^−3 M sterile acetate buffer (pH 4) at 8×10^−3 M and incubated overnight at […]. The peptide solutions were subsequently diluted to 2×10^−3 M in 1×PBS, and incubated 3 h at room temperature prior to immunization. For coassembled peptide fiber formation, PEPvIII-Coil29 and PADRE-Coil29 were weight out separately, and mixed on vortex for 5 mins before dissolved in 10×10^−3 M sterile acetate buffer (pH 4), and diluted in the same procedure as PEPvIII-Coil29 nanofiber preparation. To prepare CFA/IFA peptide emulsion for immunization, PEPvIII peptide was initially dissolved in 4×10^−3 M in sterile water, and equal volume of adjuvant solution was mixed in with peptide solution and vortexed for 45 min to bring the final concentration of peptide to 2×10^−3 M for injection.
Mice and Immunizations: Female 057B1/6 mice were purchased from Harlan laboratory and housed at the animal facility at the University of Chicago and Duke University. All procedures were approved by both the University of Chicago Institutional Animal Care and Use Committee (protocol 71-900) and the Duke Institutional Animal Care and Use Committee (protocol A314-15-12 19N). Mice (6-12 weeks old; age-matched within each experiment) were randomly assigned in groups of five for each condition based on previous findings that this size was sufficient to distinguish responding versus nonresponding groups. Anesthetized mice were immunized subcutaneously with the indicated solutions (2×50 μL at the shoulders) and boosted where indicated with half-doses (2×25 μL) after 4 weeks and 7 weeks. Sera were collected from the submandibular (cheek) vein for analysis via ELISA. Mice were sacrificed 7 d after the final immunization, and the cells from the draining lymph nodes (axillary, brachial, and inguinal) were collected.
ELISA for Serum Antibodies: Serum was analyzed for antigenspecific Ig (Anti-IgG (H+L), Jackson Immuno Research, Cat #115-035-003) or IgG (gamma-specific, #115-035-071) by ELISA, as previously described (Egelman, E. H., et al. Structure 2015, 23, 280-28). To detect E214-specifi c antibodies, the plate was coated with 5 μg/mL E214-ahx-C (provided by Merck) in PBS or with 5 μg/mL streptavidin (Sigma #85878) followed by 10 μg/mL E214-PEG-biotin in PBS. […]
Peptides were synthesized by solid phase peptide synthesis by methods known in the art. […] Antibody titers were determined using ELISA.
We subsequently investigated the immunogenicity of the Coil29 peptide platform. […] Sera were collected from all the groups at predesignated dates over 18 weeks, and analyzed for peptide-specific antibody titers via ELISA (FIG. 9). […]

[4] = test system: splenocytes; assay: T-cell ELISPOT (IL-4, IFNγ) on splenocytes of immunized mice; format: cell-based, C57BL/6 mice
Procedure: T-Cell ELIspot: T-cell ELIspots were performed as described. Briefly, 0.25 million cells from the spleen were plated in each well of a 96-well ELIspot plate (Millipore, MSIPS4510), in 200 μL per well. The cells were then stimulated with peptide or left untreated as negative controls. […] Streptavidinalkaline phosphatase (3310-10) was purchased from Mabtech. Spots were developed using substrate Sigmafast BCIP/NBT (Sigma, B5655). Plates were imaged and enumerated using an ELISPOT reader (Cellular Technology, Ltd).
We further analyzed how the PADRE epitope dosing could impact the humoral response in the current platform (FIG. 10). Four groups of mice were immunized with Coil29 nanofibers formulated with different PADRE epitope concentrations ranging from 0 to 0.5×10^−3M in final concentration, and the PEPvIII-specific total IgG titers were monitored over 17 weeks (FIG. 10A). […] However, the difference in antibody response in relationship with PADRE dosing could possibly be caused by several reasons, including the use of a different B cell epitope. We are currently investigating the mechanism of this observation. It highlighted the significance in future application where the formulation of nanofibers should be fine-tuned for different epitopes induce optimal response. […]

[5] = test system: SGSG-Coil29 peptide; assay: IgG antibody response against the carrier SGSG-Coil29 sequence (ELISA); format: in vivo, C57BL/6 mice; conditions: boosts weeks 4 and 7
Procedure: Two boost containing half the primary immunization doses were given on week 4 and week 7 for both groups. Sera were collected to measure the IgG production against SGSG-Coil29 peptide using ELISA.
Antibody responses against the carrier (SGSG Coil29 sequence) were also measured by ELISA for both PEPvIII-Coil29 group and PEPvIII-Coil29/PADRE-Coil29 group (FIG. 4).
We subsequently investigated the immunogenicity of the Coil29 peptide platform. Four groups of C57BL/6 mice were immunized subcutaneously with same amount of epitope peptides (2×10^−3M of PEPvIII epitopes, 100 μL per mouse) on week 0, and boosted twice with half of the primary doses (2×10^−3M of PEPvIII epitopes, 50 μL per mouse) at weeks 4 and 7. Mice primed with an emulsion of PEPvIII with complete Fruend's adjuvant (CFA), and boosted with PEPvIII and incomplete Fruend's adjuvant (IFA) served as a positive control. Sera were collected from all the groups at predesignated dates over 18 weeks, and analyzed for peptide-specific antibody titers via ELISA (FIG. 9). […] Strikingly, the second boost at week 7 elevated the antibody titer nearly 100-fold, with the highest titer level reaching about 10^5 at week 9. […] The considerable difference in antibody response between P-C and P-C/P groups underlined the importance of the T cell epitope (PADRE) in promoting antibody responses with the Coil29 platform. […]

## NH2-LEEKKGNYVVTDH-Amide [PEPvIII, reference compound]
[1]
  percentage of TAMRA positive dendritic cells: statistically indistinguishable from the 1×PBS negative control group
[2]
  percentage of TAMRA positive macrophages: statistically indistinguishable from the 1×PBS negative control group
[3]
  PEPvIII-specific IgG antibody response: did not elicit antibody responses; also recorded: failed to elicit any antibody response

## NH2-aKXVAAVVTLKAa-Amide [PADRE, reference compound]
[4]; preliminary experiments
  concentration above which the ELISPOT response saturated: above 0.5×10^−6 M

## NH2-LEEKKGNYVVTDH SGSG QARILEADAEILRAYARILEAHAEILRAQ-Amide (H-LEEKKGNYVVTDHSGSGQARILEADAEILRAYARILEAHAEILRAQ-NH2) [P-C]
[3]; PADRE 0 or 0.05×10^−3 M final concentration, monitored over 17 weeks
  PEPvIII-specific total IgG titers, PADRE dosing study: negligible levels of IgG
[3]
  PEPvIII-specific IgG antibody response: unable to raise a significant level of epitope-specific IgG antibody titer
[3]; listed as PEPvIII-Coil29
  PEPvIII-specific IgG antibody response: very weak responses
[5]
  IgG antibody response against SGSG-Coil29: gradually diminished to a negligible level after the total IgG titers peaked at week 9
[5]; listed as PEPvIII-Coil29
  IgG antibody response against SGSG-Coil29: self-limiting, returning to baseline levels after 16 weeks
[4]; splenocytes collected on week 18, stimulated with PADRE or PEPvIII peptide
  T cell IFNγ and IL4 response (ELISPOT): responded to neither PADRE peptide nor PEPvIII peptide
